Experimental data reported in ChEMBL document CHEMBL1150925, “Gibbilimbols A-D, cytotoxic and antibacterial alkenylphenols from Piper gibbilimbum” (J Nat Prod, 1998).
Values after ≈ are worked out from the molar mass of the structure shown. Active and inactive are the calls of the source. The rule behind the calls is not given here.

What was measured:
Bacillus cereus [1] = assay: Antibacterial activity against Bacillus cereus after 24 hrs by broth microdilution method; format: functional
[2] = system: Staphylococcus epidermidis; assay: Antibacterial activity against Staphylococcus epidermidis after 24 hrs by broth microdilution method; format: functional
[3] = system: Staphylococcus epidermidis; assay: Antibacterial activity against Staphylococcus epidermidis at 60 ug/disk by paper disk diffusion technique; format: functional; settings: read-out: IZ
Pseudomonas aeruginosa = assay: Antibacterial activity against Pseudomonas aeruginosa at 60 ug/disk by paper disk diffusion technique; format: functional, organism-based
Bacillus cereus [4] = assay: Antibacterial activity against Bacillus cereus at 60 ug/disk by paper disk diffusion technique; format: functional; settings: read-out: IZ
KB = assay: Cytotoxicity against human KB cells; format: functional; settings: read-out: ED50 (the source's name)
[5] = Toxicity in Artemia salina; format: organism-based; settings: in vivo, read-out: LD50 (the source's name)

SMILES | MIC (Bacillus cereus [1]) [µg/mL] | MIC [2] [µg/mL] | zone of inhibition at 60 µg/disc [3] [mm] | Activity (Pseudomonas aeruginosa) | zone of inhibition at 60 µg/disc (Bacillus cereus [4]) [mm] | EC50 (KB) [µg/mL] | LC50 [5] [µg/mL]
O=C(N[C@H](CO)[C@H](O)c1ccc([N+](=O)[O-])cc1)C(Cl)Cl [CHLORAMPHENICOL] | 4 (≈ 12.4 µM) | 8 (≈ 24.8 µM) |  |  |  |  | 
CCCCC/C=C/CCCc1ccc(O)cc1 [GIBBILIMBOL A] | 4 (≈ 17.2 µM) | 4 (≈ 17.2 µM) | < 2 | inactive | < 2 | 4.4 (≈ 18.9 µM) | 5.3 (≈ 22.8 µM)
CCCCCC/C=C/CCc1ccc(O)cc1 [GIBBILIMBOL B] | 4 (≈ 17.2 µM) | 2 (≈ 8.61 µM) | < 2 | inactive | < 2 | 3.9 (≈ 16.8 µM) | 4.9 (≈ 21.1 µM)
CCC/C=C/CCCc1ccc(O)cc1 [GIBBILIMBOL C] | 2 (≈ 9.79 µM) | 2 (≈ 9.79 µM) | < 2 | inactive | < 2 | 7.8 (≈ 38.2 µM) | 5.5 (≈ 26.9 µM)
CCCC/C=C/CCc1ccc(O)cc1 [GIBBILIMBOL D] | 2 (≈ 9.79 µM) | 2 (≈ 9.79 µM) | < 2 | inactive | < 2 | 2.1 (≈ 10.3 µM) | 5 (≈ 24.5 µM)
